PMC11451635, “A Broad Spectrum Lasso Peptide Antibiotic Targeting the Bacterial Ribosome” (Research Square, 2024)
Entries after “also recorded” stand apart in the source; their conditions may differ.

Key:
E. coli ribosome = assay: Translocation inhibition assay; format: biochemical, Escherichia coli; conditions: 62.5 μM LAR or 250 μM negamycin, EF-G/GTP, primer extension
[1] = system: T. thermophilus 70S ribosome; assay: X-ray structure of ribosome complex; format: binding, Thermus thermophilus; conditions: 70S ribosome with mRNA and tRNAs, 250 μM antibiotic
bacteria = assay: Antibiotic activity compared with LAR; format: cell-based; conditions: Supplementary Fig. 11
Description: MICs were determined using broth microdilution method in cation-adjusted Mueller-Hinton Broth (MHBII, BD Difco) following standard procedures unless stated otherwise. Mycobacteria susceptibility was tested in Middlebrook 7H9 medium supplemented with 10% OADC Enrichment (oleic acid, bovine albumin, dextrose, and catalase) (BD Difco). The compounds (2 to 4 μl) were mixed with diluted cultures (5–7 × 10^5 cfu/mL) in MHB (196 to 198 μL) in 96-well round-bottom plates, and 2-fold serial dilutions were made. Plates were incubated at 37°C for 18–22 h, and OD600 readings were taken on Synergy Microplate Reader (Biotek). MIC was determined to be the lowest concentration of antibiotics with no visible growth. For Mycobacterial cultures, the plates were read after two to three days. Susceptibility was also assessed in MOPS minimal medium with 0.4% glucose (M2106 Teknova) and RPMI-1640 medium. Serum effects were tested in MHB with 10% or 50% fetal bovine serum (Invitrogen) or human serum (Heat Inactivated, from human male AB plasma; Sigma-Aldrich). For anaerobic conditions, E. coli was incubated in BD GasPak™ EZ pouch systems. To adjust the pH of the media, 1M NaOH or 1N HCl was used.

ClpP protease = conditions: cited from earlier work
mycobacteria = conditions: cited from earlier work

Compound: CN(CC(=O)O)NC(=O)C[C@H](N)C[C@@H](O)CN [negamycin, reference compound]
- Inhibition of ribosome translocation (E. coli ribosome): interferes with the movement of mRNA/tRNA complex through the ribosome

Compound: lariocidin B [LAR-B]
- Ribosome binding (X-ray structure) [1]: Both LAR variants form very similar complexes with the ribosome
- Antibiotic activity relative to LAR (bacteria): antibiotic activity comparable to that of the main LAR product; also recorded: closely matched that of LAR

Compound: lassomycin
- Target / activity (ClpP protease): targets microbial ClpP protease
- Antimycobacterial activity (mycobacteria): exhibits antimycobacterial activity

Compound: triculamin
- Antimycobacterial activity (mycobacteria): antimycobacterial
